From patent publication US10172306B2, “Production of ingenol, ingenol esters and/or tiglian-3-one derivatives by euphorbiaceae plant cell suspension cultures” (Phyton Holdings, LLC, priority 2015, dated 2019)

Tested on: suspension culture of E. peplus
Experiment: Precursor feeding of E. peplus suspension culture with angelic acid: cell growth
Format: cell-based, Euphorbia peplus
Conditions: 0.5 mM angelic acid added to E. peplus suspension culture, cultivated for 7-14 days; sterile water as negative control
Procedure: Further increase of Ingenol-3-angelate was achieved using angelic acid as a precursor. A suspension culture of E. peplus, newly transferred or up to 14 days old, was supplemented with 0.5 mM angelic acid. […] The same amount of sterile water was used as a negative control. After addition of angelic acid, the culture was cultivated for 7-14 days (see FIG. 6).

Structure (SMILES): C/C=C(/C)C(=O)O [angelic acid, 2-methyl-2(Z)-butenoic acid]
- influence on cell growth: no influence on cell growth
